# According to patent US20140154332A1, “FORMULAS COMPRISING HIGHLY SOLUBLE ELEMENTS AND VITAMIN FOR THE PREVENTION AND AMELIORATION OF OSTEOPOROSIS” (SINOVEDA CANADA, INC., priority 2011, published 2014):
# How the values were obtained:
# [1] = 25 mg calcium load, 45Ca; cited from earlier work
# [2] = humans; cited from earlier work
# [3] = rats; cited from earlier work
# [4] = dual isotope techniques; cited from earlier work
# [5] = Calcium, magnesium and zinc balance study in rats receiving calcium free diet (cumulative net percentage, body weight, plasma levels); conditions: for Cumulative net percentage of calcium / Cumulative net percentage of magnesium / Cumulative net percentage of zinc: n = 5 per group
# From the text: (§1) Male Sprague-Dawley rats (about 6-7 weeks), with an initial weight between 220 g to 250 g, were randomly divided into different treatment groups. All the rats were housed in individual metabolic cages in a temperature-controlled room. Each rat received free access to the normal diet (Table 34) before the experiment. Both normal and calcium free diets (Table 34) were used in this set of studies. De-ionized water was provided ad libitum. All the rats were weighed before treatment.
# (§2) Two sets of studies were performed: a normal diet and calcium free diet. In each study, there were seven treatment groups. […] Rats participating in the normal diet study received normal diet ad libitum throughout. Rats participating in the group of calcium free diet received the calcium free food ad libitum starting five days before and throughout treatment. In both study groups, animals received one dose a day for five days. Amounts of calcium, magnesium and zinc in individual formulation and in each diet were determined using ICP-OES. Values of dosage and dietary intake were measured for the calculation of elemental balance. […] Daily elemental dosages, similar to that of human's, are 53.14 mg/kg for calcium, 0.38 to 55 mg/kg/day for magnesium and 0.017 to 2.5 mg/kg/day for zinc. […] The vehicle for preparing each dose was de-ionized water. The concentration of calcium in all dosage preparations was 15.94 mg/mL. One mL of each preparation was administered by gavage. Body weight, elemental dosage and diet consumption were recorded daily.
# (§3) Animals were housed individually in a metabolic cage five days before the study. Food consumption was evaluated daily. Urine and feces were collected daily for four days and the content of calcium, magnesium and zinc was determined. On Day 5, each animal received its treatment. These treatments were administered once a day for four days. After the last treatment, each animal was anesthetized shortly before peak elemental blood concentration was achieved. Blood was collected using a heparinized syringe via cardiac puncture. Immediately after blood collection, the animal was then sacrificed with an overdose of isoflourane. Each blood sample was centrifuged at 1900 rpm at room temperature; plasma was harvested and stored at −20° C. until analysis. Urine was measured daily; it was diluted with de-ionized water, filtered and an aliquot was stored at −20° C. until analysis. Daily fecal output was collected and lyophilized. Each sample was weighed and digested using a mixture of three volume of nitric acid and one volume of perchloric acid. For every gram of dried feces, 10 mL of acid mixture was added. Each sample was digested for three days. The volume of the digested sample was measured and an aliquot of the digest was stored at −20° C. until analysis. The content of calcium, magnesium and zinc in plasma, feces and urine were determined using ICP-OES.
# (§4) Daily calcium balance was calculated using equation 1:
# (§5) Ca Balance=total Ca intake(dose and dietary intake)−Ca excreted in urine−Ca excreted in feces (1)
# (§6) While, percentage of Ca balance was determined using equation 2:
# (§7) % Ca balance=Ca balance/(total Ca intake)×100% (2)
# (§8) Cumulated calcium balance and % cumulated net calcium balance were calculated using equations (1) and (2), except, the sum of daily intake and excretion was used for calculation. The balance for magnesium and zinc was also calculated using the concept of equations (1) and (2). Cumulated elemental balance and % cumulated net elemental balance were calculated in a similar fashion as described above.
# (§9) All results were analyzed using two-way ANOVA. […] The data are presented as mean±S.D. and mean±S.E.M. in tables and figures, respectively.
# [6] = Calcium, magnesium and zinc balance study in rats receiving normal diet (cumulative net percentage, body weight, plasma levels); conditions: for Body weight of rats: normal calcium diet, n = 5; for Cumulative net percentage of calcium / Cumulative net percentage of zinc / Net accumulative percentage of magnesium: normal diet, n = 5 per group
# From the text: as §1, §2, §3, §4, §5, §6, §7, §8, §9
compound,measurement,setting,value
calcium ascorbate,Bioavailability of calcium,[1],70%
O=C([O-])[O-].[Ca+2] [calcium carbonate],average amount absorbed,[2],24%
Magnesium gluconate,bioavailability of magnesium,[3],highest value
[O]=[Zn] [zinc oxide],bioavailability of zinc,[4],approximately 24%
Calcium Acetate [Ca ACE],Bioavailability of calcium,[1],45%
same,Cumulative net percentage of calcium,"[5]; Day 1, mean ± S.D.",−30.6 ± 51.3%
same,Cumulative net percentage of magnesium,"[5]; Day 1, mean ± S.D.",−197.2 ± 105.2%
same,Cumulative net percentage of zinc,"[5]; Day 1, mean ± S.D.",−107.1 ± 85.5%
same,Body weight of rats,"[5]; Day 1, n = 5",202.4 ± 9.3 g
same,Cumulative net percentage of calcium,"[5]; Day 2, mean ± S.D.",−9.88 ± 26.5%
same,Cumulative net percentage of magnesium,"[5]; Day 2, mean ± S.D.",−150.4 ± 88.9%
same,Cumulative net percentage of zinc,"[5]; Day 2, mean ± S.D.",−77.7 ± 59.0%
same,Body weight of rats,"[5]; Day 2, n = 5",194.8 ± 9.3^$ g
same,Cumulative net percentage of calcium,"[5]; Day 3, mean ± S.D.",4.88 ± 24.0%
same,Cumulative net percentage of magnesium,"[5]; Day 3, mean ± S.D.",−115.3 ± 62.7%
same,Cumulative net percentage of zinc,"[5]; Day 3, mean ± S.D.",−65.7 ± 66.7%
same,Body weight of rats,"[5]; Day 3, n = 5",196.8 ± 10.9 g
same,Cumulative net percentage of calcium,"[5]; Day 4, mean ± S.D.",11.1 ± 20.0%
same,Cumulative net percentage of magnesium,"[5]; Day 4, mean ± S.D.",−93.6 ± 37.2%
same,Cumulative net percentage of zinc,"[5]; Day 4, mean ± S.D.",−50.5 ± 46.4%
same,Body weight of rats,"[5]; Day 4, n = 5",193.4 ± 11.9^$ g
same,Body weight of rats,"[5]; Day 5, n = 5",188.0 ± 12.2^$ g
same,magnesium balance,[5]; rats,net loss of magnesium
same,Body weight of rats,"[6]; Day 1, mean ± S.D.",242.0 ± 7.4 g
same,Body weight of rats,"[6]; Day 2, mean ± S.D.",237.0 ± 12.5 g
same,Body weight of rats,"[6]; Day 3, mean ± S.D.",239.2 ± 13.9 g
same,Body weight of rats,"[6]; Day 4, mean ± S.D.",238.6 ± 13.9 g
same,Body weight of rats,"[6]; Day 5, mean ± S.D.",244.0 ± 12.8 g
same,Cumulative net percentage of calcium,"[6]; Day 1, mean ± S.D.",14.4 ± 24.0%
same,Cumulative net percentage of zinc,"[6]; Day 1, mean ± S.D.",27.5 ± 16.0^%
same,Net accumulative percentage of magnesium,"[6]; Day 1, mean ± S.D.",16.7 ± 17.2^%
same,Cumulative net percentage of calcium,"[6]; Day 2, mean ± S.D.",26.9 ± 9.0%
same,Cumulative net percentage of zinc,"[6]; Day 2, mean ± S.D.",40.9 ± 7.3%
same,Net accumulative percentage of magnesium,"[6]; Day 2, mean ± S.D.",29.9 ± 3.8%
same,Cumulative net percentage of calcium,"[6]; Day 3, mean ± S.D.",30.3 ± 4.9%
same,Cumulative net percentage of zinc,"[6]; Day 3, mean ± S.D.",45.6 ± 5.9%
same,Net accumulative percentage of magnesium,"[6]; Day 3, mean ± S.D.",34.3 ± 2.5%
same,Cumulative net percentage of calcium,"[6]; Day 4, mean ± S.D.",31.9 ± 3.0%
same,Cumulative net percentage of zinc,"[6]; Day 4, mean ± S.D.",48.4 ± 4.4%
same,Net accumulative percentage of magnesium,"[6]; Day 4, mean ± S.D.",37.7 ± 2.7%
